Bridge positions count the residues as written; N and C are the ends. Square brackets hold non-standard residues; d marks the D form. Peptide text beside a SMILES is read from it. ξ: configuration not given here. Trp(1-Me) = Cn1cc(C[C@H](N)C(=O)O)c2ccccc21; 2Nal = N[C@@H](Cc1ccc2ccccc2c1)C(=O)O; ξOrn = NCCCC(N)C(=O)O; Aib = CC(C)(N)C(=O)O

This test deals with Interleukin-23 subunit alpha/receptor (UniProt Q5VWK5). As to the kind of experiment: ELISA assay for specific human IL-23R inhibitors. The method, then:
A 384-well plate was coated with 50 µl/well of human IL-23 at a final concentration of […] and incubated overnight at 4°C. The wells were washed 3 times with […] wash buffer and blocked with […] blocking buffer for 60 minutes at room temperature and washed again. 20 µl of serially diluted test peptides was added to each well and subsequently 20 µl of recombinant human IL-23R-Fc chimera at final concentration of […]. The plate was incubated for 60 minutes at room temperature. After the wells were washed, bound IL-23R-Fc was detected with goat anti-hu- IgG 1 -HRP antibody. Signals were visualized with QuantaBlu Fluorogenic Peroxidase Substrate.

Chain of Interleukin-23 subunit alpha/receptor (Q9NPF7 whole entry): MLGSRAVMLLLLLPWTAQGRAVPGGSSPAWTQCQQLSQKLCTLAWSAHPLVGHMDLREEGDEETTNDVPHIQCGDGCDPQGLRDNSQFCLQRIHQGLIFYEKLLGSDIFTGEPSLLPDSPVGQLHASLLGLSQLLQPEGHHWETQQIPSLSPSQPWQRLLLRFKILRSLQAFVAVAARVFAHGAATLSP
Chain of Interleukin-23 subunit alpha/receptor (Q5VWK5 whole entry): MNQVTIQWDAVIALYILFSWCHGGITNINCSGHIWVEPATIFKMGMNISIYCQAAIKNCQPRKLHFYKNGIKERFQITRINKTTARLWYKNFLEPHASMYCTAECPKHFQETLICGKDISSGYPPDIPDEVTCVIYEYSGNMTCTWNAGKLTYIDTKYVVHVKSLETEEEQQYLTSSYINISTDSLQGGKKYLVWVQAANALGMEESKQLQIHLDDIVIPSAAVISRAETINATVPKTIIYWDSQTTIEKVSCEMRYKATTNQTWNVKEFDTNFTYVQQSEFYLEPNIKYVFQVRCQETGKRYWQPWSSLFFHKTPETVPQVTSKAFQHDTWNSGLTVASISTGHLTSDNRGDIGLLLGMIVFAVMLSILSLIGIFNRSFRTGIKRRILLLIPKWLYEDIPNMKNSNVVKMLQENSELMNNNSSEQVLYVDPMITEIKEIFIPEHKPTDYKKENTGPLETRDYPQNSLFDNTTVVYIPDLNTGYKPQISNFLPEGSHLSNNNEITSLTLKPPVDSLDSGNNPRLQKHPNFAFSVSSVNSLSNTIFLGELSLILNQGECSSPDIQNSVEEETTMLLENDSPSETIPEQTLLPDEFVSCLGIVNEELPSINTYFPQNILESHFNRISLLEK

As a reminder, the IC50 is the concentration that inhibits the measured activity by half. For `CC(=O)N[C@@H]1CCCCNC(=O)C[C@@H](C(=O)N[C@@H](CC(N)=O)C(=O)N[C@@H](CC(N)=O)C(=O)O)NC(=O)C(C)(C)NC(=O)[C@H](Cc2cccc3ccccc23)NC(=O)[C@H](Cc2ccc(O)cc2)NC(=O)[C@H](CCCNC(=N)N)NC(=O)[C@H](CCC(N)=O)NC(=O)[C@H](Cc2c[nH]c3ccccc23)NC(=O)[C@H]([C@@H](C)O)NC(=O)[C@H](CC(N)=O)NC1=O` [WO2025051920, Example 14], the IC50 was 5.42 nM. Turning to `COc1ccc(C[C@@H]2NC(=O)[C@H](CCNC(=N)N)NC(=O)[C@H](CCC(N)=O)NC(=O)[C@H](Cc3c[nH]c4ccccc34)NC(=O)[C@H]([C@@H](C)O)NC(=O)[C@H](CC(N)=O)NC(=O)[C@H](NC(C)=O)CCCCNC(=O)C[C@@H](C(=O)N[C@@H](CC(N)=O)C(=O)N[C@@H](CC(N)=O)C(=O)O)NC(=O)C(C)(C)NC(=O)[C@H](Cc3ccc4ccccc4c3)NC2=O)cc1` [WO2025051920, Example 39], the IC50 stood at 1.46 nM. Turning to `COc1ccc(C[C@@H]2NC(=O)[C@H](C)NC(=O)[C@H](CCC(N)=O)NC(=O)[C@H](Cc3c[nH]c4ccccc34)NC(=O)C([C@@H](C)O)NC(=O)[C@H](CC(N)=O)NC(=O)C(N)CCCCCNC(=O)C[C@H](C(=O)N[C@@H](CC(N)=O)C(=O)N[C@@H](CC(N)=O)C(=O)O)NC(=O)C(C)(C)NC(=O)[C@H](Cc3ccc4ccccc4c3)NC2=O)cc1` (stereo partly drawn) [WO2025051920, Example 43], the IC50 is 1.44 nM. With `CC(=O)N[C@H]1CC(=O)NCCCC(C(=O)N[C@@H](CC(N)=O)C(=O)N[C@@H](CC(N)=O)C(=O)O)NC(=O)C(C)(C)NC(=O)[C@H](Cc2ccc3ccccc3c2)NC(=O)[C@H](Cc2ccc(O)cc2)NC(=O)[C@H](CCCNC(=N)N)NC(=O)[C@H](CCC(N)=O)NC(=O)[C@H](Cc2cn(C)c3ccccc23)NC(=O)[C@H]([C@@H](C)O)NC(=O)[C@H](CC(N)=O)NC1=O` (stereo partly drawn) [WO2025051920, Example 33] (Ac-DNT[Trp(1-Me)]QRY[2Nal][Aib][ξOrn]NN-OH; lactam 1-10) the figure was 3.36 nM; with `COc1ccc(C[C@@H]2NC(=O)[C@H](CCCNC(=N)N)NC(=O)[C@H](CCC(N)=O)NC(=O)[C@H](Cc3cn(C)c4ccccc34)NC(=O)[C@H]([C@@H](C)O)NC(=O)[C@H](CC(N)=O)NC(=O)[C@@H](NC(C)=O)CCC(=O)NCCCC(C(=O)N[C@@H](CC(N)=O)C(=O)N[C@@H](CC(N)=O)C(=O)O)NC(=O)C(C)(C)NC(=O)[C@H](Cc3ccc4ccccc4c3)NC2=O)cc1` (stereo partly drawn) [WO2025051920, Example 35] (Ac-ENT[Trp(1-Me)]QRY(Me)[2Nal][Aib][ξOrn]NN-OH; lactam 1-10), 4.55 nM. On to `COc1ccc(C[C@@H]2NC(=O)[C@H](CCCNC(=N)N)NC(=O)[C@H](CCC(N)=O)NC(=O)[C@H](Cc3c[nH]c4ccccc34)NC(=O)[C@H]([C@@H](C)O)NC(=O)[C@H](CC(N)=O)NC(=O)[C@H](NC(C)=O)CCCCNC(=O)C[C@@H](C(=O)N[C@@H](CC(N)=O)C(=O)N[C@@H](CC(N)=O)C(=O)O)NC(=O)[C@H](CCC(N)=O)NC(=O)[C@H](Cc3cccc4ccccc34)NC2=O)cc1` [WO2025051920, Example 19], for which the IC50 was found to be 15.6 nM.

`COc1ccc(C[C@@H]2NC(=O)[C@H](C)NC(=O)[C@H](CCC(N)=O)NC(=O)[C@H](Cc3c[nH]c4ccccc34)NC(=O)[C@H](CCCNC(=N)N)NC(=O)[C@H](CC(N)=O)NC(=O)[C@H](NC(C)=O)CCCCNC(=O)C[C@@H](C(=O)N[C@@H](CC(N)=O)C(=O)N[C@@H](CC(N)=O)C(=O)O)NC(=O)C(C)(C)NC(=O)[C@H](Cc3ccc4ccccc4c3)NC2=O)cc1` [WO2025051920, Example 46] came in with an IC50 of 1.38 nM. As for `COc1ccc(C[C@@H]2NC(=O)[C@H](CCCNC(=N)N)NC(=O)[C@H](CCC(N)=O)NC(=O)[C@H](Cc3cn(C)c4ccccc34)NC(=O)[C@H]([C@@H](C)O)NC(=O)[C@H](CC(N)=O)NC(=O)[C@@H](NC(C)=O)CC(=O)NCCCC(C(=O)N[C@@H](CC(N)=O)C(=O)N[C@@H](CC(N)=O)C(=O)O)NC(=O)C(C)(C)NC(=O)[C@H](Cc3ccc4ccccc4c3)NC2=O)cc1` (stereo partly drawn) [WO2025051920, Example 34] (Ac-DNT[Trp(1-Me)]QRY(Me)[2Nal][Aib][ξOrn]NN-OH; lactam 1-10), the 50% inhibitory concentration (IC50) came to 2.16 nM.

Values taken from BindingDB's records for patent WO2025051920 (Sanofi-Aventis Deutschland, 2025).
